Experiment [1] concerns cells with or lacking pH8 nSMase. As to the kind of experiment: Sensitivity of cells to C11AG according to pH8 nSMase expression. The class given is cell-based.
The target of experiment [2] is T1, pH7 nSMase (Homo sapiens, UniProt Q92485).
T1 construct: For pH7 nSMase assays, membranes from Jurkat cells (human T-cell lymphoma) were used; endogenous in cells; host or cells: Jurkat (human T-cell lymphoma) membranes, Triton X-100 eluate
T1 sequence (Q92485 19-455): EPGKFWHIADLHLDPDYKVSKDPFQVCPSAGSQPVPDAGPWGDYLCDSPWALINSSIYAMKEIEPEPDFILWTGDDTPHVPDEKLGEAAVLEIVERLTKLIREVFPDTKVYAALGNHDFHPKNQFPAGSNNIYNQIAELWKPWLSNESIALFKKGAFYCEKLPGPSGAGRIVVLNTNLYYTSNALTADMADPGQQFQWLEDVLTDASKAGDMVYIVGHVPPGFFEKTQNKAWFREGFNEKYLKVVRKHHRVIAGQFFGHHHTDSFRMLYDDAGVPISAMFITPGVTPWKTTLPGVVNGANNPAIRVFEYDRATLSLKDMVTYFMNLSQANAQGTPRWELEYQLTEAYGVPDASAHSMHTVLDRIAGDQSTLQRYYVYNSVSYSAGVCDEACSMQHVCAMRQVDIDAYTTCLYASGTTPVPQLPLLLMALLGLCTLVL
Briefly: pH7 nSMase assay in the presence of C11AG (membranes from Jurkat cells, Tris pH6.5). In kind it is biochemical. As to conditions: pH7 nSMase versus pH8 nSMase. How it is done:
SMase activities were determined in the presence of 0, 1, 10, 100 or 1000 μg/ml C11AG. C11AG-acetate was used as a stock solution of 10 mg/ml in water.
For pH7 nSMase assays, membranes from Jurkat cells (human T-cell lymphoma) were used.
From each preparation 5 μg of protein were used for (1) a pH7 nSMase assay (in 50 μl 50 mM Tris pH6.5, 5 mM MgCl2, 1 mM NaF, 1 mM NaVO3, 0.1% Triton X 100, 20 nCi ^14C sphingomyelin), (2) a pH8 nSMase assay (in 50 μl 50 mM Tris pH8.5, 5 mM MgCl2, 1 mM NaF, 1 mM NaVO3, 0.1% Triton X 100, 20 nCi ^14C sphingomyelin) and (3) an acidic SMase assay (in 50 μl 50 mM NaH2PO4 pH5.0, 5 mM MgCl2, 1 mM NaF, 1 mM NaVO3, 0.1% Triton X 100, 20 nCi ^14C sphingomyelin).
After 30 minutes phosphorylcholine (PCH) was extracted by the addition of 2 volumes methanol/chloroform (2/1). PCH counts were determined in an aliquot of 10 μl after separation on TLC plates (Merck 60, F254, running solvent: 0.9% NaCl/methanol/NH4OH (50/70/5, V/V/V) in a Digital Autoradiograph. PCH counts of the uninhibited reaction were set 100% enzyme activity. Each assay was done in quadruplicate.

In experiment [3] the test system is Human T-cell lymphoma cells (Jurkat). As to the kind of experiment: Stimulation of anti-APO-1 (anti-CD95) induced apoptosis in Jurkat cells. The class given is cell-based. As to conditions: C11AG at 1 μg/ml, 24 hours, 37° C., FIG. 7. How it is done: Human T-cell lymphoma cells (Jurkat) were seeded in 96-well plates at a density of 10^5 cells per ml. An antibody directed against CD95 (anti-APO-1) was added at various concentrations with and without C11AG at 1 μg/ml. After incubation at 37° C. for 24 hours, cell numbers were determined afer vital staining. By Nicoleti staining it was confirmed that dead cells had died due to apoptosis. All assays were done in triplicate.

Each structure is given as a SMILES string.

On to `CCCCCCCCCCC=NNC(=N)N` [C11AG, 1-(undecylidene-amino)guanidine], for which the “response to C11AG of cells which have both pH7 nSMase and pH8 nSMase” value in experiment [1] (cells with both pH7 nSMase and pH8 nSMase) is recorded as “show resistance”. The “response to C11AG of cells lacking pH8 nSMase” value in experiment [1] (solid tumour cells, T cell lymphoma cells, activated or autoreactive T cells) was “are sensitive”. Moreover, in experiment [2], the “fold more active on pH7 nSMase than on pH8 nSMase” value is recorded as 200-1000 fold. The “induction of apoptosis by anti-APO-1” value in experiment [3] was “stimulated induction of apoptosis”.

The record behind these values is patent US20030162191A1, “Enzymes and uses relating thereto” (priority 2000, published 2003).
